Laboratory results reported in PMC10355216, “The C-terminal tail of CSNAP attenuates the CSN complex” (Life Science Alliance, 2023).
Where no end group is shown, it is not given here. [ ]: non-standard residue; d: D form. Aib = CC(C)(N)C(=O)O

Assays:
recombinant CSN complex = assay: Peptide array screen of C-CSNAP peptides with recombinant CSN (rCSN^WT); type: binding; details: for Average fold change, intensities as fold of C-CSNAP (A1): rCSN^WT on INTAVIS Celluspots array, anti-CSN3 and HRP secondary antibody, average of six replicates (three independent experiments in duplicates); for Average fold change: peptide array with rCSN, average of 3 experiments, left and right (n = 6), fold of C-CSNAP (A1); for intensities as fold of C-CSNAP (A1), Experiment #1 left / intensities as fold of C-CSNAP (A1), Experiment #1 right / intensities as fold of C-CSNAP (A1), Experiment #2 left / intensities as fold of C-CSNAP (A1), Experiment #2 right / intensities as fold of C-CSNAP (A1), Experiment #3 left / intensities as fold of C-CSNAP (A1), Experiment #3 right: rCSN^WT peptide array; for intensities as fold of C-CSNAP (A1), Experiment #1 left: replicate: Experiment #1, left array; for intensities as fold of C-CSNAP (A1), Experiment #1 right: replicate: Experiment #1, right array; for intensities as fold of C-CSNAP (A1), Experiment #2 left: replicate: Experiment #2, left array; for intensities as fold of C-CSNAP (A1), Experiment #2 right: replicate: Experiment #2, right array; for intensities as fold of C-CSNAP (A1), Experiment #3 left: replicate: Experiment #3, left array; for intensities as fold of C-CSNAP (A1), Experiment #3 right: replicate: Experiment #3, right array;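 for all read-outs here: densitometric signal of CSN bound to each synthesized peptide spot, with an antibody-only array lacking CSN run to exclude non-specific binding, higher values meaning stronger binding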
Experimental: To generate an optimized C-CSNAP peptide, we used the peptide array methodology. The array was designed to screen for the optimal peptide length, sequence, and stability (Fig 3A). A recombinant CSN complex was expressed, purified, and screened for binding to the peptide array by using an anti-CSN3 antibody. To rule out non-specific binding of the probing antibody, a control experiment was carried out without the addition of the CSN complex (Fig 3A right panel).
C-CSNAP peptide and its derivatives were synthesized on a microarray. The array was blocked and incubated with or without the COP9 signalosome complex (CSN) and probed using an anti-CSN3 antibody and HRP-conjugated secondary antibody. To assess non-specific binding of the antibodies to the array, anti-CSN3 and anti-GAR–HRP were used without the addition of the CSN. Signal intensity of each spot was measured and normalized to the intensity of the spot of C-CSNAP (A1). Measured values for each spot were averaged from six arrays and plotted with SEM. […] (A) A representative image of the peptide array (left) and the background (right). (B) Elongation of the C-terminal 16 amino acids (green) with one residue at a time based on the full-length sequence. […] (F) Single D-amino acid substitution at various positions.
(§1) Intensity values are normalized to the intensity of the 16AA C-CSNAP peptide (A1) on each array from three independent experiments in duplicates, and averages from the six replicates are calculated with SEM.
(§2) Optimization of C-CSNAP sequence for enhanced binding to recombinant CSN^ΔCSNAP was screened by printing the modified sequences of CSNAP or C-CSNAP (Phe to Trp, Asp to Glu, Ala screen, D-amino acid screen, N-α-methylation, and Aib incorporation on INTAVIS Celluspots array [2 × 384spots]). The array was blocked with 5% skim milk in TBS-0.5% Tween 20 (TBS-T) for 4 h at room temperature, washed three times in TBS-T, and then incubated with 0.5 μM CSN^ΔCSNAP in 5% milk–TBS-T. Bound CSN^ΔCSNAP was visualized by incubating with anti-CSN3 (ab79698) antibody (1:10,000, overnight) and goat-anti-rabbit-HRP secondary antibody (1:10,000, 1 h).

CSN^ΔCSNAP complex = assay: Peptide array screen of C-CSNAP peptides with rCSN^ΔCSNAP; type: binding; details: average of 5 experiments;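 note: Array-printed peptides incubated with 0.5 µM CSN^ΔCSNAP, bound complex detected by anti-CSN3 antibody plus HRP-linked secondary, spot intensity expressed relative to the parent reference peptide spot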
Experimental: Peptide array screen of modified C-CSNAP peptides. C-CSNAP peptide and its derivatives were printed on a microarray. The array was blocked and incubated with or without the CSN∆CSNAP complex and probed using an anti-CSN3 antibody and HRP-conjugated secondary antibody. To assess non-specific binding of the antibodies to the array, anti-CSN3 and anti-GAR-HRP were used without the addition of the COP9 signalosome complex (CSN). Signal intensity of each spot was measured and normalized to the intensity of the spot of C-CSNAP (A1). Measured values for each spot were averaged from six arrays and plotted with standard errors SEM.
as §1, §2

[1] = peptide array, rCSN^ΔCSNAP, left and right spots
[2] = peptide array with rCSN^ΔCSNAP, left and right (n = 10), fold of C-CSNAP (A1)

Substance	Average fold change, intensities as fold of C-CSNAP (A1) (recombinant CSN complex)	Average fold change (CSN^ΔCSNAP complex; [1])	Average fold change (recombinant CSN complex)	further results
EFFNDFEELFDDDDIQ [Position D11, C-CSNAP, Asp to Glu substitution D42,49E]	0.8480 fold of C-CSNAP (A1)	1.0773 fold of C-CSNAP (A1)		
VDLDEAGGSTGLLMDLAANEKAVHADFFNDFEDLFDDDDIQ [B 2, CSNAP residues 17-57]	0.7909 fold of C-CSNAP (A1)			Average fold change (CSN^ΔCSNAP complex; [2]): 0.8221 fold
LAANEKAVHADFFNDFEDLFDDDDIQ [Position A11, CSNAP residues 32-57]	1.1357 fold of C-CSNAP (A1)			Average fold change (CSN^ΔCSNAP complex; [2]): 1.1791 fold
DFFNEFEELFEDDDIQ [Position E13, C-CSNAP, Asp to Glu substitution D46,49,52E]	0.6592 fold of C-CSNAP (A1)	1.2426 fold of C-CSNAP (A1)		
DFFNDWEDLFDDDDIQ [Position C14, C-CSNAP, Phe to Trp substitution F47W]	0.9440 fold of C-CSNAP (A1)	1.1204 fold of C-CSNAP (A1)		
DFFNDFEDLFEEDDIQ [E 1, C-CSNAP, Asp to Glu substitution D52,53E]	0.6914 fold of C-CSNAP (A1)	1.1244 fold of C-CSNAP (A1)		
DFFNDFEELFDDDEIQ [Position D24, C-CSNAP, Asp to Glu substitution D49,55E]	0.5347 fold of C-CSNAP (A1)	1.2175 fold of C-CSNAP (A1)		
EFFNDFEELFDDEDIQ [Position E11, C-CSNAP, Asp to Glu substitution D42,49,54E]	0.6850 fold of C-CSNAP (A1)	0.8932 fold of C-CSNAP (A1)		
DFFNEFEELFDDDDIQ [Position D16, C-CSNAP, Asp to Glu substitution D46,49E]	0.7250 fold of C-CSNAP (A1)	1.2614 fold of C-CSNAP (A1)		
LLMDLAANEKAVHADFFNDFEDLFDDDDIQ [Position A15, CSNAP residues 28-57]	0.9771 fold of C-CSNAP (A1)			Average fold change (CSN^ΔCSNAP complex; [2]): 1.2034 fold
EFFNEFEDLFDDEDIQ [E 7, C-CSNAP, Asp to Glu substitution D42,46,54E]	0.6639 fold of C-CSNAP (A1)	1.1480 fold of C-CSNAP (A1)		
DAFNDFEDLFDDDDIQ [Position B21, C-CSNAP, Ala substitution F43A]	0.8509 fold of C-CSNAP (A1)			Average fold change (CSN^ΔCSNAP complex; [2]): 1.1048 fold
EFFNDFEELFEDDDIQ [E 9, C-CSNAP, Asp to Glu substitution D42,49,52E]	0.6782 fold of C-CSNAP (A1)	1.0112 fold of C-CSNAP (A1)		
EFFNEFEELFEDDDIQ [D42,46,49,52E]		1.0318 fold of C-CSNAP (A1)	0.5168 fold	
EFFNEFEELFEEEEIQ [D42,46,49,52,53,54,56E]		1.1160 fold of C-CSNAP (A1)	0.5923 fold	
EFFNDFEELFEDDEIQ [D42,49,52,55E]		0.9030 fold of C-CSNAP (A1)	0.7529 fold	
DFFNEFEELFDDEDIQ [Position E15, C-CSNAP, Asp to Glu substitution D46,49,54E]	0.5680 fold of C-CSNAP (A1)	0.8747 fold of C-CSNAP (A1)		
HADFFNDFEDLFDDDDIQ [A 3, CSNAP residues 40-57]	1.0326 fold of C-CSNAP (A1)			Average fold change (CSN^ΔCSNAP complex; [2]): 0.8215 fold
DFFNEFEELFEDDEIQ [D46,49,52,55E]		1.1176 fold of C-CSNAP (A1)	0.6253 fold	
EFFNEFEELFEDEEIQ [D42,46,49,52,54,55E]		1.1157 fold of C-CSNAP (A1)	0.2605 fold	
EFFNEFEELFEEEDIQ [D42,46,49,52,53,55E]		1.2784 fold of C-CSNAP (A1)	0.4075 fold	
DLAANEKAVHADFFNDFEDLFDDDDIQ [Position A12, CSNAP residues 31-57]	0.9978 fold of C-CSNAP (A1)			Average fold change (CSN^ΔCSNAP complex; [2]): 1.0405 fold
YVDLDEAGGSTGLLMDLAANEKAVHADFFNDFEDLFDDDDIQ [B 3, CSNAP residues 16-57]	1.1108 fold of C-CSNAP (A1)			Average fold change (CSN^ΔCSNAP complex; [2]): 0.9215 fold

Substance	Average fold change, intensities as fold of C-CSNAP (A1) (recombinant CSN complex)	Average fold change (CSN^ΔCSNAP complex; [1])	Average fold change (recombinant CSN complex)	further results
DFFNDFEDLFDD[Aib]DIQ[Aib] [Position H18, C-CSNAP with Aib incorporation (54,58)]	0.2987 fold of C-CSNAP (A1)			intensities as fold of C-CSNAP (A1), Experiment #1 left (recombinant CSN complex): 0.3071 fold of C-CSNAP (A1); intensities as fold of C-CSNAP (A1), Experiment #1 right (recombinant CSN complex): 0.2334 fold of C-CSNAP (A1); intensities as fold of C-CSNAP (A1), Experiment #2 left (recombinant CSN complex): 0.1973 fold of C-CSNAP (A1); intensities as fold of C-CSNAP (A1), Experiment #2 right (recombinant CSN complex): 0.2444 fold of C-CSNAP (A1); intensities as fold of C-CSNAP (A1), Experiment #3 left (recombinant CSN complex): 0.2003 fold of C-CSNAP (A1); intensities as fold of C-CSNAP (A1), Experiment #3 right (recombinant CSN complex): 0.6096 fold of C-CSNAP (A1); Average fold change, intensities as fold of C-CSNAP (A1) (CSN^ΔCSNAP complex; [1]): 1.0167 fold
EFFNEFEELFDEDDIQ [D42,46,49,53E]		1.2266 fold of C-CSNAP (A1)	0.3807 fold	
EFFNDFEDLFDEDDIQ [Position D13, C-CSNAP, Asp to Glu substitution D42,53E]	0.7560 fold of C-CSNAP (A1)	1.1346 fold of C-CSNAP (A1)		
DFFN-Aib-FEDLF-Aib-DDDIQ-Aib [Position H15, C-CSNAP with Aib incorporation (46,52,58)]	0.4542 fold of C-CSNAP (A1)			intensities as fold of C-CSNAP (A1), Experiment #1 left (recombinant CSN complex): 0.3458 fold of C-CSNAP (A1); intensities as fold of C-CSNAP (A1), Experiment #1 right (recombinant CSN complex): 0.3290 fold of C-CSNAP (A1); intensities as fold of C-CSNAP (A1), Experiment #2 left (recombinant CSN complex): 0.2291 fold of C-CSNAP (A1); intensities as fold of C-CSNAP (A1), Experiment #2 right (recombinant CSN complex): 0.4652 fold of C-CSNAP (A1); intensities as fold of C-CSNAP (A1), Experiment #3 left (recombinant CSN complex): 0.2799 fold of C-CSNAP (A1); intensities as fold of C-CSNAP (A1), Experiment #3 right (recombinant CSN complex): 1.0762 fold of C-CSNAP (A1); Average fold change, intensities as fold of C-CSNAP (A1) (CSN^ΔCSNAP complex; [1]): 0.5199 fold
DFFNDFEDLFEDDEIQ [E 3, C-CSNAP, Asp to Glu substitution D52,55E]	0.8879 fold of C-CSNAP (A1)	0.8137 fold of C-CSNAP (A1)		
EFFNEFEELFDEEEIQ [D42,46,49,53,54,55E]		1.0322 fold of C-CSNAP (A1)	0.3621 fold	
DFFNDFEELFEEEDIQ [D49,52,53,54E]		0.9844 fold of C-CSNAP (A1)	0.6224 fold	
DFFNEFEDLFDDDEIQ [Position D20, C-CSNAP, Asp to Glu substitution D46,55E]	0.7799 fold of C-CSNAP (A1)	1.3581 fold of C-CSNAP (A1)		
EFFNEFEDLFDEDDIQ [E 6, C-CSNAP, Asp to Glu substitution D42,46,53E]	0.7001 fold of C-CSNAP (A1)	0.9657 fold of C-CSNAP (A1)		
DFFNEFEELFEEEDIQ [D46,49,52,53,54E]		1.3745 fold of C-CSNAP (A1)	0.5724 fold	
DFFNDFEDLFEEEDIQ [D52,53,54E]		1.1046 fold of C-CSNAP (A1)		
AANEKAVHADFFNDFEDLFDDDDIQ [Position A10, CSNAP residues 33-57]	1.0826 fold of C-CSNAP (A1)			Average fold change (CSN^ΔCSNAP complex; [2]): 0.9871 fold
DFFNDFEELFEEDDIQ [Position E17, C-CSNAP, Asp to Glu substitution D49,52,53E]	0.6206 fold of C-CSNAP (A1)	1.2373 fold of C-CSNAP (A1)		
DFFNDFEDLWDDDDIQ [Position C15, C-CSNAP, Phe to Trp substitution F51W]	0.8159 fold of C-CSNAP (A1)	1.0302 fold of C-CSNAP (A1)		
EFFNEFEDLFDDDDIQ [Position D10, C-CSNAP, Asp to Glu substitution D42,46E]	0.8862 fold of C-CSNAP (A1)	1.0622 fold of C-CSNAP (A1)		
DWWNDWEDLWDDDDIQ [D 2, C-CSNAP, Phe to Trp substitution F43,44,47,51W]	0.6800 fold of C-CSNAP (A1)	0.9168 fold of C-CSNAP (A1)		
EFFNEFEDLFEDDDIQ [E 5, C-CSNAP, Asp to Glu substitution D42,46,52E]	0.8794 fold of C-CSNAP (A1)	1.0465 fold of C-CSNAP (A1)		
STGLLMDLAANEKAVHADFFNDFEDLFDDDDIQ [Position A18, CSNAP residues 25-57]	0.9600 fold of C-CSNAP (A1)			Average fold change (CSN^ΔCSNAP complex; [2]): 1.3562 fold
DFFNDFEDLFEEEEIQ [D52,53,54,55E]		1.3020 fold of C-CSNAP (A1)	0.7255 fold	
DFFNEFEELFEEDEIQ [D46,49,52,53,55E]		1.1600 fold of C-CSNAP (A1)	0.5677 fold	
DFFNEFEELFDEEEIQ [D46,49,53,54,55E]		1.4630 fold of C-CSNAP (A1)	0.6202 fold	
EFFNDFEELFEEDDIQ [D42,49,52,53E]		0.8283 fold of C-CSNAP (A1)	0.7257 fold	
